Data reported in patent publication US20220081435A1, “ANDROGEN RECEPTOR PROTEIN DEGRADERS” (THE REGENTS OF THE UNIVERSITY OF MICHIGAN, priority 2019, published 2022).
pIC50: −log10 of the molar value.

Columns and labels:
Format in all cases: cell-based
AR protein = target: T1, AR protein (Homo sapiens, UniProt P10275, T878A); experiment: AR protein degradation in LNCaP cells (Western blotting); conditions: for % AR protein degradation in LNCaP Cells: treatment time 6 h, average of three independent experiments
T1 construct: The percent AR protein degradation induced by these compounds at various concentrations in LNCaP cells; host or cells: LNCaP
T1 sequence (P10275 1-920 T878A): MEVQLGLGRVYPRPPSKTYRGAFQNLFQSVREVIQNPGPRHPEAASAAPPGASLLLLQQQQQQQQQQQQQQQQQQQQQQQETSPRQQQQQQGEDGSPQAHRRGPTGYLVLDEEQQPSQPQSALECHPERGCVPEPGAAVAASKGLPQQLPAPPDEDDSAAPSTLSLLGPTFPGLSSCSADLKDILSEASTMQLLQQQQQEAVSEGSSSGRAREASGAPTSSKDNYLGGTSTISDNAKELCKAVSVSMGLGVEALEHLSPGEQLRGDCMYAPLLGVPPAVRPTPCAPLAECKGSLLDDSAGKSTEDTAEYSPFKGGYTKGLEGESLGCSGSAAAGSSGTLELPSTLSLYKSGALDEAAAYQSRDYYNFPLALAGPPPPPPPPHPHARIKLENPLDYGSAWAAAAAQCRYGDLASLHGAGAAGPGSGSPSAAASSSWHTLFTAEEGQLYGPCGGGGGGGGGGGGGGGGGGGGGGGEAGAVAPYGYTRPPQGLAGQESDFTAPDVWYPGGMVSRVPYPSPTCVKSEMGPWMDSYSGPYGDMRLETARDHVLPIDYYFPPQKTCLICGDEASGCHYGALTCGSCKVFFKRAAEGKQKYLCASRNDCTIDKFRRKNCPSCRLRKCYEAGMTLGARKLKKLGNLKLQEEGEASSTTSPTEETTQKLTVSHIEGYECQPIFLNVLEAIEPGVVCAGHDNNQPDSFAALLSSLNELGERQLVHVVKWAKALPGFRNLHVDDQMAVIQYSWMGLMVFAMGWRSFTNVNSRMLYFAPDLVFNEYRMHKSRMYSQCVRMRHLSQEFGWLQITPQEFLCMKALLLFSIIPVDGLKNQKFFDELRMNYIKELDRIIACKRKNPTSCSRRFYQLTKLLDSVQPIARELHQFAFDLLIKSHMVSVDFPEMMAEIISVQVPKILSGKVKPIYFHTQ
Method in brief: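 LNCaP cells were cultured with 10% FBS at 37° C and lysed in RIPA buffer after treatment. AR levels were measured by Western blot. Degradation percentage was quantified by densitometry as the background-corrected AR band relative to the loading control.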

[1] = tested on: AR-regulated gene expression (PSA, TMPRSS2, FKBP5); experiment: Suppression of AR-regulated gene expression in LNCaP cells (qRT-PCR)
Experimental: (§1) Quantitative Real-Time Polymerase Chain Reaction (qRT-PCR). Real-time PCR was performed using QuantStudio 7 Flex Real-Time PCR System as described previously.^43,44 RNA was purified using the Qiagen RNase-Free DNase set, then after quantification, the extracted RNA was converted to cDNA using High Capacity RNA-to-cDNA Kit from Applied Biosystems (Thermo Fisher Scientific). The levels of AR, TMPRSS2, FKBP5, PSA(KLK3) and GAPDH were quantified using TaqMan Fast Advanced Master Mix from Applied Biosystems. The level of gene expression was evaluated using comparative CT method, which compares the CT value to GAPDH (ACT) and then to vehicle control (ΔΔCT).

[2] = tested on: AR-regulated gene expression (PSA, TMPRSS2, FKBP5, ERG); experiment: Suppression of AR-regulated gene expression in VCaP cells (qRT-PCR)
Experimental: as §1

VCaP cells = experiment: Cell growth inhibition in VCaP cells (WST-8 assay)
Experimental: VCaP were treated with different compounds in charcoal stripped medium in the presence of 0.1 nM of AR agonist R1881 for 7 days. Cell viability was determined by a WST-8 assay.
Cell lines and Cell Culture: All the LNCaP, VCaP and 22RV1 cells used were purchased from American Type Culture Collection (ATCC). LNCaP and 22RV1 cells were grown in RPMI 1640 (Invitrogen), VCaP cells were grown in DMEM with Glutamax (Invitrogen). All of the cells were supplemented with 10% fetal bovine serum (Invitrogen) at 37° C. in a humidified 5% CO2 incubator.

22RV1 cells = experiment: Cell growth inhibition in 22RV1 cells (WST-8 assay)
Experimental: 22RV1 cells were treated with a regular culture medium for 7 days. Cell viability was determined by a WST-8 assay.
Cell lines and Cell Culture: All the LNCaP, VCaP and 22RV1 cells used were purchased from American Type Culture Collection (ATCC). […] All of the cells were supplemented with 10% fetal bovine serum (Invitrogen) at 37° C. in a humidified 5% CO2 incubator.

Compound: Cc1ncsc1-c1ccc([C@H](CC(=O)N2CCC(N3CCC(C#Cc4ccc(C(=O)NC5C(C)(C)C(Oc6ccc(C#N)c(Cl)c6)C5(C)C)cc4)CC3)CC2)NC(=O)[C@@H]2C[C@@H](O)CN2C(=O)[C@@H](NC(=O)C2(F)CC2)C(C)(C)C)cc1 (stereo partly drawn) [Compound 34, (2S,4R)—N—((S)-3-(4-((4-(((1r,3r)-3-(3-Chloro-4-cyanophenoxy)-2,2,4,4-tetramethyl-cyclobutyl)carbamoyl)phenyl)ethynyl)-[1,4′-bipiperidin]-1′-yl)-1-(4-(4-methylthiazol-5-yl)phenyl)-3-oxopropyl)-1-((S)-2-(1-fluorocyclopropane-1-carboxamido)-3,3-dimethylbutanoyl)-4-hydroxypyrrolidine-2-carboxamide]
- % AR protein degradation in LNCaP Cells (AR protein; 0.01 μM): 89%
- % AR protein degradation in LNCaP Cells (AR protein; 0.1 μM): 99%
- % AR protein degradation in LNCaP Cells (AR protein; 1 μM): 100%
- AR degradation (AR protein; LNCaP, 10 nM, 24 h treatment): > 95%
- Time to effective reduction of AR protein level (AR protein; LNCaP, 100 nM): ≤ 2 h
- AR depletion with a 4 h treatment (AR protein; LNCaP, 100 nM, 4 h): near-complete AR depletion
- DC50 (AR protein; LNCaP, 24 h treatment, read-out: DC50 (drug concentration that results in 50% protein degradation)): 0.86 nM
- AR degradation (Western blotting, dose-dependent) (AR protein; LNCaP, at 10 nM): partial AR degradation
- AR degradation (Western blotting, dose-dependent) (AR protein; LNCaP, at both 100 nM and 1 μM): essentially complete AR degradation
- Rank as AR degrader among 32, 34 and 35 (AR protein; LNCaP, based upon the data obtained at 10 nM): most potent
- AR degradation after pretreatment with AR antagonist (6), VHL-d, MLN4924 or MG132 (AR protein; LNCaP, data not shown): effectively blocked
- Potency relative to AR antagonist 6 in suppressing AR-regulated gene transcription [1]: > 100 times
- Reduction of mRNA level of both PSA and TMPRSS2 genes ([1]; 10 nM): > 50%
- Expression of PSA, TMPRSS2 and FKBP5 genes ([1]; dose-dependent, data not shown): effectively suppressed
- Potency relative to AR antagonist 6 in suppressing AR-regulated gene transcription [2]: > 100 times
- Reduction of mRNA level of both PSA and TMPRSS2 genes ([2]; 10 nM): > 50%
- ERG gene expression ([2]; dose-dependent): suppresses
- Expression of PSA, TMPRSS2 and FKBP5 genes ([2]; dose-dependent, data not shown): effectively suppressed
- Potency relative to enzalutamide (4) and compound 6 in cell growth inhibition (VCaP cells): > 100 times
- pIC50 (VCaP cells; charcoal stripped medium, 0.1 nM R1881, 7 days): 9.47
- Potency relative to enzalutamide (4) and compound 6 in cell growth inhibition (22RV1 cells; 22RV1): > 100 times
- pIC50 (22RV1 cells; 22RV1, regular culture medium, 7 days): 6.74
